Measured values reported in patent publication US8012711B2, “Methods of screening for compounds that reduce microbial resistance to fluoroquinolones” (priority 1999, dated 2011).
≈ marks a conversion by molar mass, not a printed value. Like-named read-outs stand apart in the source and are kept apart here.

Experiments:
[1] = tested on: Escherichia coli AG100, AG112 and derived fluoroquinolone-resistant mutants with ΔacrAB; assay: MIC by broth microdilution, AcrAB-deleted strains; type: cell-based; conditions: Escherichia coli
Experimental: (§1) Susceptibility testing. MICs of selected antimicrobial agents were determined by a standard broth microdilution procedure with cation-adjusted Mueller-Hinton broth (Becton Dickinson, Cockeysville, Md.) and an inoculum of 5×10^5 CFU/ml according to NCCLS performance and interpretive guidelines (NCCLS. 1997. Methods for dilution antimicrobial susceptibility. Tests for bacteria that grow aerobically—Fourth Edition; Approved Standard. NCCLS document M7-A4 (ISBN 1-56238-309-4). NCCLS, 940 West Valley Road, Suite 1400, Wayne, Pa. 19087). Antimicrobial agents on the commercially available microtiter plates (Merlin Diagnostics GmbH, Bornheim, Germany) included the FQs ciprofloxacin (CIP), enoxacin, fleroxacin, nor-flo-xacin, ofloxacin (OFL), pefloxacin, sparfloxacin (SPX), and trovafloxacin (TVA). They also included tetracycline (TET), chloramphenicol (CML), trimethoprim (TMP), cefoxitin (CFOX), cefaclor, cefixim and loracarbef. MICs of bile salts were determined by a broth macrodilution procedure: sodium cholate and sodium deoxycholate were serially diluted twofold in LB broth and tubes inoculated at 5×10^5 CFU/ml. MICs of both antibiotics and bile salts were determined twice in independent experiments with reproducible results.
P1 transduction. […] DNA sequencing.

[2] = tested on: Escherichia coli K-12 AG100, its Mar mutant AG112 and derived fluoroquinolone-resistant mutants (acrAB+); assay: MIC by broth microdilution, acrAB+ strains; type: cell-based; conditions: Escherichia coli
Experimental: Selection of fluoroquinolone-resistant mutants. 1-AG100, 2°-AG100, 3*-AG100, 4*-AG100 and 1′-AG112, 2′-AG112, 3′-AG112 were sequential step mutants derived from AG 100 and AG112, respectively, on solid media. For each step, about 10^11 cells of an overnight culture were plated on several LB agar plates supplemented with increasing concentrations of OFL. Single colonies were further purified on OFL-supplemented agar plates. Mutant 2°-AG100 came out of one series, while mutants 3*- and 4*-AG100 came from a second series.
as §1

[3] = tested on: E. coli; conditions: cited from earlier work
[4] = strain 1-AG112 (1′-AG112), ΔacrAB
[5] = strain 2-AG100 (2°-AG100), ΔacrAB
[6] = strain 2-AG112 (2′-AG112), ΔacrAB
[7] = strain 3-AG112 (3′-AG112), ΔacrAB
[8] = strain 1-AG100, acrAB+, read-out: MIC
[9] = strain 1-AG112 (1′-AG112), acrAB+, read-out: MIC
[10] = strain 2-AG100 (2°-AG100), acrAB+, read-out: MIC
[11] = strain 2-AG112 (2′-AG112), acrAB+, read-out: MIC
[12] = strain 3*-AG100, acrAB+, read-out: MIC
[13] = strain 3-AG112 (3′-AG112), acrAB+, read-out: MIC
[14] = strain 4*-AG100, acrAB+, read-out: MIC
[15] = strain AG100, acrAB+, read-out: MIC
[16] = strain AG112 (Mar mutant), acrAB+

SMILES: C[C@@H]1CN(c2c(F)c(N)c3c(=O)c(C(=O)O)cn(C4CC4)c3c2F)C[C@H](C)N1 [SPX, sparfloxacin]
- MIC ([1]; all ΔacrAB mutants, below detection): < 0.015 µg/mL
- MIC ([1]; strain 1-AG100, ΔacrAB): ≤ 0.015 µg/mL
- MIC [1, 4]: ≤ 0.015 µg/mL
- MIC [1, 5]: ≤ 0.015 µg/mL
- MIC [1, 6]: ≤ 0.015 µg/mL
- MIC ([1]; strain 3*-AG100, ΔacrAB): ≤ 0.015 µg/mL
- MIC [1, 7]: ≤ 0.015 µg/mL
- MIC ([1]; strain 4*-AG100, ΔacrAB): ≤ 0.015 µg/mL
- MIC ([1]; strain AG100, ΔacrAB): ≤ 0.015 µg/mL
- MIC ([1]; strain AG112, ΔacrAB): ≤ 0.015 µg/mL
- MIC [2, 8]: 0.125 µg/mL (≈ 0.319 µM)
- MIC [2, 9]: 0.25 µg/mL (≈ 0.637 µM)
- MIC [2, 10]: 0.25 µg/mL (≈ 0.637 µM)
- MIC [2, 11]: 1 µg/mL (≈ 2.55 µM)
- MIC [2, 12]: 0.5 µg/mL (≈ 1.27 µM)
- MIC [2, 13]: 2 µg/mL (≈ 5.1 µM)
- MIC [2, 14]: 2 µg/mL (≈ 5.1 µM)
- MIC [2, 15]: ≤ 0.015 µg/mL
- MIC [2, 16]: 0.06 µg/mL (≈ 0.153 µM)

SMILES: CN(C)[C@@H]1C(O)=C(C(N)=O)C(=O)[C@@]2(O)C(O)=C3C(=O)c4c(O)cccc4[C@@](C)(O)[C@H]3C[C@@H]12 [TET, tetracycline]
- MIC ([1]; strain 1-AG100, ΔacrAB): 1 µg/mL (≈ 2.25 µM)
- MIC [1, 4]: 0.5 µg/mL (≈ 1.13 µM)
- MIC [1, 5]: 0.5 µg/mL (≈ 1.13 µM)
- MIC [1, 6]: 1 µg/mL (≈ 2.25 µM)
- MIC ([1]; strain 3*-AG100, ΔacrAB): 1 µg/mL (≈ 2.25 µM)
- MIC [1, 7]: 0.5 µg/mL (≈ 1.13 µM)
- MIC ([1]; strain 4*-AG100, ΔacrAB): 1 µg/mL (≈ 2.25 µM)
- MIC ([1]; strain AG100, ΔacrAB): 0.5 µg/mL (≈ 1.13 µM)
- MIC ([1]; strain AG112, ΔacrAB): 1 µg/mL (≈ 2.25 µM)
- MIC [2, 8]: 2 µg/mL (≈ 4.5 µM)
- MIC [2, 9]: 4 µg/mL (≈ 9 µM)
- MIC [2, 10]: 2 µg/mL (≈ 4.5 µM)
- MIC [2, 11]: 16 µg/mL (≈ 36 µM)
- MIC [2, 12]: 8 µg/mL (≈ 18 µM)
- MIC [2, 13]: 8 µg/mL (≈ 18 µM)
- MIC [2, 14]: 8 µg/mL (≈ 18 µM)
- MIC [2, 15]: 1 µg/mL (≈ 2.25 µM)
- MIC [2, 16]: 4 µg/mL (≈ 9 µM)

SMILES: N[C@@H]1[C@H]2CN(c3nc4c(cc3F)c(=O)c(C(=O)O)cn4-c3ccc(F)cc3F)C[C@@H]12 [TVA, trovafloxacin]
- MIC ([1]; strain 1-AG100, ΔacrAB): 0.06 µg/mL (≈ 0.144 µM)
- MIC [1, 4]: 0.06 µg/mL (≈ 0.144 µM)
- MIC [1, 5]: 0.06 µg/mL (≈ 0.144 µM)
- MIC [1, 6]: 0.06 µg/mL (≈ 0.144 µM)
- MIC ([1]; strain 3*-AG100, ΔacrAB): 0.06 µg/mL (≈ 0.144 µM)
- MIC [1, 7]: 0.06 µg/mL (≈ 0.144 µM)
- MIC ([1]; strain 4*-AG100, ΔacrAB): 0.125 µg/mL (≈ 0.3 µM)
- MIC ([1]; strain AG100, ΔacrAB): ≤ 0.03 µg/mL
- MIC ([1]; strain AG112, ΔacrAB): ≤ 0.03 µg/mL
- MIC [2, 8]: 0.25 µg/mL (≈ 0.6 µM)
- MIC [2, 9]: 0.5 µg/mL (≈ 1.2 µM)
- MIC ([2]; strain 2-AG100 (2°-AG100), acrAB+): 0.25 µg/mL (≈ 0.6 µM)
- MIC [2, 11]: 1 µg/mL (≈ 2.4 µM)
- MIC [2, 12]: 0.5 µg/mL (≈ 1.2 µM)
- MIC [2, 13]: 2 µg/mL (≈ 4.8 µM)
- MIC [2, 14]: 2 µg/mL (≈ 4.8 µM)
- MIC [2, 15]: 0.06 µg/mL (≈ 0.144 µM)
- MIC [2, 16]: 0.125 µg/mL (≈ 0.3 µM)

SMILES: Oc1cc(Cl)ccc1Oc1ccc(Cl)cc1Cl [triclosan]
- Reduction of resistance to triclosan ([3]; deletion of acrAB, all strains): 10 fold
- Increase of resistance to triclosan ([3]; mutation in enoyl reductase (fabI)): about 100 fold
- Increase of resistance to triclosan ([3]; overexpression of acrAB, marA, or soxS): about two-fold
